From PMC8287944, “5-Fluorouracil blocks quorum-sensing of biofilm-embedded methicillin-resistant Staphylococcus aureus in mice” (Nucleic Acids Research, 2021)

How the values were obtained:
MRSA ATCC 43300 [1] = assay: AI-2 activity of MRSA ATCC 43300; type: cell-based, Staphylococcus aureus; conditions: MRSA ATCC 43300, 3 h, different 5-FU concentrations
Procedure: To confirm that the phenotype could be restored, 1 μM synthetic (S)-4,5-dihydroxy-2,3-pentanedione (DPD) (Biosynth Carbosynth, Staad, Switzerland) was used. After 3 h under static conditions at 37°C, the supernatant was analysed for AI-2 activity with V. harveyi (MM32).
(§1) Figure 4. Bioactivity of 5-FU against MRSA ATCC 43300. (A) Quorum sensing-associated AI-2 activity of MRSA 43300 grown for 3 h with different 5-FU concentrations. (B) Effect of different 5-FU concentrations on MRSA 43300 growth. (C) Interference with biofilm formation. (D) Effect on adherent MRSA 43300. Data points represent three biological replicates expressed as mean ± SD (**P < 0.01; ***P < 0.001; ****P < 0.0001).
Figure 5. Phenotype restoration with synthetic AI-2 supplementation. AI-2 activity of MRSA ATCC 43300 was evaluated with and without 1 μM DPD in the presence of different 5-FU concentrations. The dashed line indicates the baseline level of AI-2 of MRSA ATCC 43300 in the absence of 5-FU. Values represent 3 biological replicates expressed as mean ± SD (**P < 0.01; ****P < 0.0001).

MRSA ATCC 43300 [2] = assay: MRSA 43300 growth; type: cell-based, Staphylococcus aureus; conditions: 0.1 μM 5-FU
Procedure: as §1

[3] = test system: AI-2 production by HEK-293AI2 cells expressing MTAN and LuxS; assay: HEK-293AI2 / V. harveyi (MM32) AI-2 detection platform (AI-2 production by engineered human cells); type: cell-based, human cells; MTAN and LuxS derived from E. coli; conditions: Homo sapiens, 24 h, HEK-293AI2 cells exposed 24 h; AI-2 in supernatant read by V. harveyi MM32 bioluminescence
Procedure: LuxS (MF688636) and MTAN (MF688635) transgenes derived from E. coli were codon-optimized for stable expression in mammalian cells. For the generation of double stable HEK-293-derived cell line HEK-293AI2 transgenic for simultaneous constitutive PhEFIα-driven MTAN and PhCMV-driven LuxS-eYFP expression, 250,000 cells were first transfected with 2000 ng of pFS168 (PhEFIα-MTAN-pA) and selected in culture medium containing 20 μg/ml blasticidin (cat. no. ant-bl-1; InvivoGen, San Diego, CA, USA) for two weeks. […] After 17 days of selection in medium containing 200 μg/ml (w/v) zeocin (cat. no. ant-zn-1; Invivogen, San Diego, CA, USA) and 20 μg/ml blasticidin, resistant monoclonal cells (HEK-293sFS26cx) were obtained by limiting dilution cloning and screened for AI-2 activity in their supernatants. […] The cell line was regularly tested for the absence of mycoplasma.
20 μl of HEK-293AI2 cells (10^4 cells per well) were resuspended in 20 μl Dulbecco's modified Eagle's medium (DMEM; Thermo Fisher, Basel, Switzerland, low glucose, without phenol red, cat. no. 11880–028) supplemented with 4 mM L-glutamine (Thermo Fisher, Basel, Switzerland, cat. no. 25030-024), 30 μg/ml kanamycin and 1% FCS and seeded into a poly-L-lysine-coated Black Greiner clear-bottom 384-well plate (cat. no. 3845; Corning, New York, USA) using a Multidrop Combi Reagent Dispenser (cat. no. 5840300; Thermo Fisher, Basel, Switzerland). Cells were incubated for 20 h and then 20 nL of individual compounds (stock solution in 5 mM in DMSO) or controls (stock solutions of novobiocin, 10 mM in DMSO; staurosporin, 20 mM in DMSO) were transferred with Echo 550 liquid handler (Labcyte, San Jose, CA, USA) into the plate.
Compound-treated cells were cultivated for 24 hours and the cell culture supernatants (10 μl) were transferred to dry black polystyrene 384-well plates (Corning, New York, USA, cat. no. 3571). The AI-2 activity was quantified by adding 40 μl per 384-well of V. harveyi MM32 AI-2 reporter strain, diluted 1:500 in AB-Medium from a stationary overnight culture grown in Luria Marine (LM)-medium containing 20 g of NaCl, 10 g of Bacto Tryptone (Difco Laboratories), and 5 g of yeast extract (BBL) ([25]). Plates were sealed with BREATHseal™ (cat. no. 7.676 050; Greiner Bio-One, Frickenhausen, Germany) and incubated for 4 h at 30°C and 200 rpm on a Multitron Pro shaker (Infors, Bottmingen, Switzerland). Bioluminescence was measured on an Envision 2104 Multilabel plate reader (Perkin Elmer, Waltham, USA) with 1 s integration time. […] The initial hit inclusion criteria were a toxicity score of less than 50% and an AI-2 activity reduction below the average of all compound activity three times the standard deviation (-49.39% of activity).
Figure 2. Cell-based primary screen for AI-2 biosynthesis inhibitors. (A) Detailed assay protocol of the primary screen using engineered mammalian cells to identify inhibitors of quorum sensing. […] Aliquots of 10 μl of culture supernatants were transferred to black-bottomed assay plates and mixed with 40 μl of V. harveyi MM32 (AI-2 biosensor). AI-2-induced bioluminescence was measured 4 h later and normalized against the controls. In a secondary screen, the dose-response relationships of hit compounds are analyzed. To simultaneously assess effects on cell viability, compound-treated cells were supplemented with PrestoBlue and incubated for 1 h prior to resorufin fluorescence quantification. (B) Z’-evaluation of the AI-2 inhibitor assay.

E. coli = E. coli quorum sensing / AI-2 activity in supernatant; type: cell-based, Escherichia coli; conditions: Supplementary Figure S3
Procedure: The test strain E. coli RP437 was grown overnight in LB. Its optical density was measured on a Novaspec II photometer (Pharmacia, Freiburg, Germany) and the culture was diluted to a final OD600 of 0.1 the next morning. The bacteria were challenged with test compounds for 3 h, and then AI-2 activity in the culture supernatant was determined. Specifically, 90 μl of the AI-2 reporter strain V. harveyi (MM32), grown overnight in LM medium and then prediluted 1:500 in AB-medium containing 30 μg/ml kanamycin, was added to 10 μl of E. coli supernatant (10% v/v) in black-bottomed Fluotrac 200 96-well plates (Greiner Bio-One, Frickenhausen, Germany), which were shaken at 200 rpm, at 30°C. The AI-2 induced bioluminescence of MM32 was measured after 5 h. […]
Supplementary Figure 3 | Effect of hit candidates on Escherichia coli. […] AI-2-secreting E. coli (XL10-Gold) was grown for 3 h and AI-2 activity in the supernatant was quantified. […] Optical density (OD600) was measured after 24 h as a measure of cell growth. […] Then, planktonic cell growth (OD600) was measured and biofilm formation was quantified by means of crystal violet staining. (d) AI-2-secreting E. coli (RP437) was grown for 3 h in the presence of different compounds (10 µM), and then AI-2 activity in the supernatant was quantified. Optical density (OD600) was measured after 24 h.

O=c1[nH]cc(F)c(=O)[nH]1 [5-Fluorouracil]
AI-2 production and quorum-sensing capacity of MRSA (MRSA ATCC 43300 [1]): dose-dependently reduced
Bacterial growth of MRSA (MRSA ATCC 43300 [2]): significantly decreased bacterial growth
IC50 [3]: 0.46 µM
Effect on E. coli quorum sensing (E. coli): interfered with E. coli quorum sensing
